Consider 10 compounds from paper PMC6154598, “Alkamides from Anacyclus pyrethrum L. and Their in Vitro Antiprotozoal Activity” (Molecules : A Journal of Synthetic Chemistry and Natural …, 2017).

Data set [1] concerns P. falciparum (NF54 IEF). The arrangement: method as in PMID 24853616. The following applies: previously reported data; cited from earlier work.
In data set [2] the test system is L. donovani (MHOM-ET-67/L82 strain, axenic amastigotes). Nature of the data set: In vitro antiprotozoal activity against L. donovani. The following applies: for SI Ld: ratio of cytotoxic (L6) over antiprotozoal IC50 (Ld). Format: cell-based, Leishmania donovani. On the procedure: (§1) Tests for antiprotozoal activities were carried out using established standard protocols at the Swiss Tropical and Public Health Institute (Swiss TPH, Basel, Switzerland). The assays and the IC50 determinations were performed essentially as described previously. The compounds used as positive controls in the various bioassays (see Table 1) were of commercial origin, with the exception of melarsoprol, which was a gift from the WHO. Their purity (generally >95%) was specified by the manufacturers. The purity of test compounds was assessed by UHPLC/MS analyses and found to be >90% in case of compounds 1–6 and >80% in case of 7. Compounds 8 + 9 represented a mixture in a ratio of approximately 1:4 (Figure S10).

Data set [3] relates to T. b. rhodesiense (STIB 900 strain, bloodstream trypomastigotes). Nature of the data set: In vitro antiprotozoal activity against T. b. rhodesiense. Format: cell-based, Trypanosoma brucei rhodesiense. Particulars: for SI Tbr: ratio of cytotoxic (L6) over antiprotozoal IC50 (Tbr). On the procedure: as §1
The subject of data set [4] is P. falciparum (NF54 IEF). Kind of data set: In vitro antiprotozoal activity against P. falciparum. Format: cell-based, Plasmodium falciparum. Particulars: for SI Pf: ratio of cytotoxic (L6) over antiprotozoal IC50 (Pf). On the procedure:
as §1

The subject of data set [5] is T. cruzi (Tulahuen C4 strain; intracellular amastigotes). Kind of data set: In vitro antiprotozoal activity against T. cruzi. Format: cell-based, Trypanosoma cruzi. On the procedure:
as §1

The nature of data set [6]: Cytotoxicity against L6 rat skeletal myoblasts. Format: cell-based. On the procedure: as §1
The subject of data set [7] is L6 rat skeletal myoblast cell line. Kind of data set: Cytotoxicity against L6 rat skeletal myoblasts. Format: cell-based. The procedure: as §1
Setting [8] is: Leishmania donovani, MHOM-ET-67/L82 strain, axenic amastigotes, mean of two determinations ± deviation, read-out: IC50 Ld.
[9] abbreviates: Leishmania donovani, MHOM-ET-67/L82 strain, axenic amastigotes, value in μM of pure compound, read-out: IC50 Ld (in brackets).
Setting [10] is: Trypanosoma brucei, STIB 900 strain, bloodstream trypomastigotes, mean of two determinations ± deviation, read-out: IC50 Tbr.
[11] abbreviates: Trypanosoma brucei, STIB 900 strain, bloodstream trypomastigotes, value in μM of pure compound, read-out: IC50 Tbr (in brackets).
Setting [12] is: Plasmodium falciparum, NF54, NF54 IEF, mean of two determinations ± deviation, read-out: IC50 Pf.
Where [13] appears, read: Plasmodium falciparum, NF54, NF54 IEF, value in μM of pure compound, read-out: IC50 Pf (in brackets).
The mark [14] stands for this setting: Trypanosoma cruzi, Tulahuen C4 strain, intracellular amastigotes, mean of two determinations ± deviation, read-out: IC50 Tc.
Where [15] appears, read: Trypanosoma cruzi, Tulahuen C4 strain, intracellular amastigotes, value in μM of pure compound, read-out: IC50 Tc (in brackets).
The mark [16] stands for this setting: rat, IC50 Cytotox (in brackets).
Setting [17] is: Plasmodium falciparum, NF54, read-out: IC50 Pf.
[18] abbreviates: Plasmodium falciparum, NF54, read-out: IC50 Pf (in brackets).
Setting [19] is: L6 rat skeletal myoblast cell line, mean of two determinations ± deviation, read-out: IC50 Cytotox.
The mark [20] stands for this setting: L6 rat skeletal myoblast cell line, value in μM of pure compound, read-out: IC50 Cytotox (in brackets).
Where [21] appears, read: NF54 IEF, mean of two determinations ± deviation.

In brackets after ≈: the same amount, converted by molar mass. Read-outs that look alike come from different tables or passages of the source. Bounds are passed on as bounds.

As for `CCCCC/C=C/C=C/C(=O)NCC(C)C` [Compound 2, deca-2E,4E-dienoic acid isobutylamide], the “IC50 Pf” value in data set [1] was 3.3 µg/mL (≈ 14.8 µM).
As for `C=CCCC/C=C/C=C/C(=O)NCC(C)C` [Compound 3, deca-2E,4E,9-trienoic acid isobutylamide], the IC50 in data set [2] (setting [8]) is 4.77 ± 1.02 µg/mL; in data set [2] (setting [9]), 21.6 µM; in data set [3] (setting [10]), 2.91 ± 0.21 µg/mL; in data set [3] (setting [11]) it was 13.2 µM; in data set [4] (setting [12]), 7.13 ± 0.63 µg/mL; in data set [4] (setting [13]), 32.2 µM. The IC50 in data set [5] (setting [14]) came to 39.9 µg/mL; in data set [5] (setting [15]) it was 181 µM; in data set [6] (rat, IC50 Cytotox), 16.7 ± 0.1 µg/mL; in data set [6] (setting [16]) it was 75.3 µM. In addition, the “SI Ld” value in data set [2] stood at 3.5. The “SI Tbr” value in data set [3] stood at 5.7. The “SI Pf” value in data set [4] amounted to 2.3.
On to `CCCCC/C=C/C=C/C(=O)NCCc1ccccc1` [Compound 4, deca-2E,4E-dienoic acid 2-phenylethylamide], for which the IC50 in data set [2] (Leishmania donovani, read-out: IC50 Ld) was 2.97 ± 0.54 µg/mL; in data set [2] (Leishmania donovani, read-out: IC50 Ld (in brackets)), 11 µM; in data set [3] (setting [10]) it was 4.03 µg/mL; in data set [3] (setting [11]), 14.9 µM; in data set [4] (setting [17]), greater than 5 µg/mL; in data set [4] (setting [18]) it was greater than 18 µM. For the same compound, the IC50 in data set [5] (Trypanosoma cruzi, TULAHUEN, read-out: IC50 Tc) came to 5.02 ± 0.05 µg/mL; in data set [5] (setting [15]) it was 18.5 µM; in data set [6] (setting [19]), 7.88 µg/mL; in data set [6] (setting [20]), 29.1 µM. In data set [2], the “SI Ld” value came out at 2.7. Also, in data set [3], the “SI Tbr” value is on record as 2.0.
As to `C/C=C\C#CC#CCC/C=C/C=C/C(=O)NCC(C)C` [Compound 6, tetradeca-2E,4E,12Z-trien-8,10-diynoic acid isobutylamide], the concentration for half-maximal inhibition (IC50) in data set [2] (setting [8]) stood at 5.04 ± 1.17 µg/mL; in data set [2] (setting [9]), 18.7 µM; in data set [3] (setting [10]), 6.37 ± 0.94 µg/mL; in data set [3] (setting [11]), 23.7 µM; in data set [4] (setting [12]), 7.19 ± 0.49 µg/mL; in data set [4] (setting [13]), 26.7 µM. Besides, the concentration for half-maximal inhibition (IC50) in data set [5] (setting [14]) is 38.8 ± 2.1 µg/mL; in data set [5] (setting [15]), 144 µM; in data set [6] (rat, IC50 Cytotox), 19.4 ± 1.7 µg/mL; in data set [6] (setting [16]), 72.2 µM. Besides, the “SI Ld” value in data set [2] was 3.9. Besides, in data set [3], the “SI Tbr” value was 3.1. Besides, the “SI Pf” value in data set [4] stood at 2.7.
On to `CCCCCCC/C=C/C=C/C(=O)NCCc1ccc(O)cc1` [Compound 7, Dodeca-2E,4E-dienoic acid 4-hydroxy-2-phenylethylamide], for which the half-inhibitory concentration (IC50) was 4.19 ± 1.64 µg/mL in data set [2] (setting [8]); 13.3 µM in data set [2] (setting [9]); 2.26 ± 0.18 µg/mL in data set [3] (setting [10]); 7.17 µM in data set [3] (setting [11]); 3.2 µg/mL in data set [4] (setting [12]); 10.1 µM in data set [4] (setting [13]). Besides, the IC50 in data set [5] (Trypanosoma cruzi, TULAHUEN, read-out: IC50 Tc (in brackets)) was 5.97 µM; in data set [5] (setting [14]), 1.88 µg/mL; in data set [6] (rat, IC50 Cytotox) it was 0.2 µg/mL; in data set [6] (setting [16]), 0.69 µM. In addition, the “SI Ld” value in data set [2] was less than 0.1. In data set [3], the “SI Tbr” value is reported as 0.1. Besides, the “IC50 Pf” value in data set [4] (setting [21]) worked out at 3.18 ± 0.20 µg/mL (≈ 10.1 µM). For the same compound, the “SI Pf” value in data set [4] is given as less than 0.1. The “IC50 Cytotox” value in data set [7] (rat) turned out to be 0.19 ± 0.05 µg/mL (≈ 0.602 µM).
Turning to `CCN(CC)CCCC(C)Nc1ccnc2cc(Cl)ccc12` (stereo not drawn) [chloroquine, reference compound], the IC50 in data set [4] (setting [17]) turned out to be 0.08 ± 0.003 µg/mL; in data set [4] (setting [18]), 0.25 µM.
On to `Nc1nc(N)nc(Nc2ccc([As]3SCC(CO)S3)cc2)n1` (stereo not drawn) [melarsoprol, reference compound], for which the 50% inhibitory concentration (IC50) in data set [3] (Trypanosoma brucei, read-out: IC50 Tbr) stood at 0.003 ± 0.001 µg/mL; in data set [3] (Trypanosoma brucei, read-out: IC50 Tbr (in brackets)), 0.008 µM.
`CCCCCCCCCCCCCCCCOP(=O)([O-])OCC[N+](C)(C)C` [miltefosine, reference compound]: the IC50 in data set [2] (setting [8]) came out at 0.127 ± 0.052 µg/mL; in data set [2] (setting [9]), 0.312 µM.
In the case of `COc1cc([C@@H]2c3cc4c(cc3[C@H](O)[C@H]3COC(=O)[C@H]23)OCO4)cc(OC)c1OC` [podophyllotoxin, reference compound], the figures for the IC50 in data set [6] (setting [19]) and in data set [6] (setting [20]) were 0.008 ± 0.001 µg/mL and 0.019 µM, respectively.
As for “undeca-2E,4E-dien-8,10-diynoic acid isopentylamide [Compound 5]”, in data set [2] (MHOM-ET-67/L82 strain, axenic amastigotes, mean of two determinations ± deviation), the “IC50 Ld” value stood at 4.04 ± 0.71 µg/mL. Further, the IC50 in data set [2] (MHOM-ET-67/L82 strain, axenic amastigotes, value in μM of pure compound, read-out: IC50 Ld (in brackets)) was found to be 16.6 µM; in data set [3] (STIB 900 strain, bloodstream trypomastigotes, value in μM of pure compound, read-out: IC50 Tbr (in brackets)), 18.9 µM; in data set [4] (NF54 IEF, value in μM of pure compound, read-out: IC50 Pf (in brackets)), 42.5 µM; in data set [5] (Tulahuen C4 strain, intracellular amastigotes, value in μM of pure compound, read-out: IC50 Tc (in brackets)), 66.9 µM; in data set [7] it was 116 µM. Also, the “SI Ld” value in data set [2] worked out at 7.0. Further, in data set [3] (STIB 900 strain, bloodstream trypomastigotes, mean of two determinations ± deviation), the “IC50 Tbr” value was found to be 4.59 ± 0.39 µg/mL. Further, the “SI Tbr” value in data set [3] turned out to be 6.2. Also, in data set [4] (setting [21]), the “IC50 Pf” value was determined as 10.3 ± 1.4 µg/mL. In data set [4], the “SI Pf” value came out at 2.7. Also, the “IC50 Tc” value in data set [5] (Tulahuen C4 strain, intracellular amastigotes, mean of two determinations ± deviation) was 16.3 ± 0.3 µg/mL. Besides, in data set [7], the “IC50 Cytotox” value turned out to be 28.2 ± 6.9 µg/mL.

One may read the IC50 as the concentration at which inhibition is half-maximal.
